Measured values published in US5702883A, “Methods for detection of mutagens using luminescence gene” (Kabushiki Kaisha Toyota Chuo Kenkyusho, priority 1993, dated 1997).

Experiments:
[1] = system: S. typhimurium TA1535 (umu D,C SOS gene, luminescence genes of pUCD620); assay: Luminescence assay with genes for luciferase and the enzyme producing its substrate, Example 6; details: Table 2; response two times that without test substance; 30° C., 2 hours; S9 Mix where necessary
[2] = system: S. typhimurium TA1535 (umu D,C SOS gene, luciferase expression); details: for Minimum detectable concentration, Method of Present Invention: Table 1, response two times that without test substance, 37° C., 2 hours, S9Mix where necessary; for minimum detectable concentration, fold lower than conventional colorimetric method: first embodiment (luc) vs conventional method
[3] = system: S. typhimurium TA1535/pSK1002 (umu D,C SOS gene, β-galactosidase expression); assay: Conventional colorimetric method (umu test, β-galactosidase activity), Comparative Example 3; details: Table 1; response two times that without test substance; 37° C., 2 hours; S9Mix where necessary
[4] = system: S. typhimurium TA1535/pSK1002 (umu D,C SOS gene, β-galactosidase expression); assay: Conventional colorimetric method (umu test, β-galactosidase activity), Comparative Example 4; details: Table 2; response two times that without test substance; 37° C., 2 hours; S9 Mix where necessary
[5] = Conventional colorimetric method (umu test, β-galactosidase activity), Comparative Example 3; details: s. typhimurium ta1535/psk1002
in vitro = details: s. typhimurium ta1535

SMILES	Minimum detectable concentration, Method of Present Invention [1]	Minimum detectable concentration, Method of Present Invention [2]	minimum detectable concentration, fold lower than conventional colorimetric method [2]	Minimum detectable concentration, Conventional Method [3]	Minimum detectable concentration, Conventional Method [4]	dynamic range (highest value of the ratio), expansion relative to conventional colorimetric method ([2]; first embodiment vs conventional colorimetric method)	maximal fold induction [5]	maximal fold induction (in vitro)
O=[N+]([O-])c1ccc2ccc3cccc4ccc1c2c34 [1-NP, 1-nitropyrene]	0.05 µg/mL	0.03 µg/mL	about 10 times	0.3 µg/mL	0.3 µg/mL	–	–	–
Nc1ccc2cc3ccccc3cc2c1 [2-AA, 2-aminoanthracene]	0.02 µg/mL	0.04 µg/mL	–	0.1 µg/mL	0.1 µg/mL	–	–	–
O=[N+]([O-])c1cc[n+]([O-])c2ccccc12 [4NQO, 4-nitroquinoline 1-oxide]	0.008 µg/mL	0.01 µg/mL	–	0.04 µg/mL	0.04 µg/mL	–	–	–
NC(=O)C(=Cc1ccc([N+](=O)[O-])o1)c1ccco1 [AF-2, 2-(2-furyl)-3-(5-nitro-2-furyl)-acrylamide]	0.0005 µg/mL	0.0005 µg/mL	–	0.003 µg/mL	0.003 µg/mL	about 3 times	~5	~15
c1ccc2c(c1)cc1ccc3cccc4ccc2c1c34 [Bap, benzo[a]pyrene]	0.04 µg/mL	0.1 µg/mL	about 10 times	1 µg/mL	1 µg/mL	–	–	–
